Results published in patent publication US11104689B2, “Influenza virus replication inhibitor and use thereof” (SUNSHINE LAKE PHARMA CO., LTD., priority 2017, dated 2021).
Read-outs that look alike come from different tables or passages of the source.

Key:
[1] = test system: influenza virus (A/Weiss/43(H1N1)); assay: Cytopathic effect assay (CPE assay), antiviral activity; format: cell-based; settings: MDCK cells, CPE inhibition, CCK-8, read-out: EC50 against influenza virus (A/Weiss/43(H1N1)) in vitro
[2] = Cytotoxicity test group of the CPE assay (no virus added, CCK-8 kit); format: cell-based; settings: dog, MDCK cells
Protocol: (§1) Experimental Procedures: MDCK cells were seeded in a 384-well plate with 2000 cells per wells, which were incubated overnight at 37° C., 5% CO2; The culture medium was changed to the fresh culture solution containing different concentrations of the compound and virus H1N1 A/Weiss/43 at a multiplicity of infection to yield 80-95% CPE on the second day. The test compound was serially diluted from the highest concentration of 100 nM in 1:3 dilutions to give 8 concentrations: 100 nM, 33.33 nM, 11.11 nM, 3.70 nM, 1.23 nM, 0.41 nM, 0.14 nM, 0.05 nM. At the same time, a non-medicated virus control group and a non-medicated cell control group free of virus were set up. No virus was added in the cytotoxicity test group but medium was added for replacement. Each group was set in duplicate, and incubated at 37° C. in 5% CO2. The cell activity was measured according to the CCK-8 kit (source: Shanghai Liji Biotechnology Co., Ltd. #D3100L4057) and the data would be used to calculate the antiviral and cytotoxicity of the compound. Data were analyzed by GraphPad Prism, CPE inhibition rate was calculated, and the EC50 was obtained according to the fitted curve. CPE inhibition rate=(absorbance of dosing hole-absorbance of virus control well)/(absorbance of cell control well-virus control well)×100%

[3] = design: species or system Beagle dogs; settings: male, beagle, dog, in vivo
Protocol: Pharmacokinetic studies of compounds of the invention in healthy adult male SD rats, dogs or monkeys were evaluated. The compound of the present invention was administered in form of a solution containing 10% DMSO+10% Kolliphor HS 15+80% physiological saline solution. For intravenous (iv) administration, animals were given with a dose of 0.2 or 1 mg/kg and blood was taken at 0.083, 0.25, 0.5, 1.0, 2.0, 5.0, 7.0, and 24 hours (0.3 mL) and centrifugated for 10 minutes at 3,000 or 4,000 rpm. For oral (po) administration, animals were given with a dose of 1 or 5 mg/kg, taken at 0.25, 0.5, 1.0, 2.0, 5.0, 7.0, and 24 hours (0.3 mL) and centrifugated at 3,000 or 4,000 rpm for 10 minutes. The plasma solution was collected and stored at −20° C. or −70° C. until the LC/MS/MS analysis was performed.

MDCK cells = assay: Cytotoxicity test group of the CPE assay (no virus added, CCK-8 kit); format: cell-based
Protocol: as §1

O=C1c2c(O)c(=O)ccn2N([C@H]2c3ccc(F)cc3-c3ccsc3-c3ccccc32)[C@@H]2COCCN12 (mixture of isomers) [Example 37, The mixture of (R)-12-((S)-5-fluoro-8H-dibenzo[3,4:6,7]cyclohepta[1,2-b]thiophen-8-yl)-7-hydroxy-3,4,12,12a-tetrahydro-1H-[1,4]oxazino[3,4-c]pyrido[2,1-f][1,2,4]triazine-6,8-dione and (S)-12-((R)-5-fluoro-8H-dibenzo [3,4:6,7]cyclohepta[1,2-b]thiophen-8-yl)-7-hydroxy-3,4,12,12a-tetrahydro-1H-[1,4]oxazino [3,4-c]pyrido [2,1-f][1,2,4]triazine-6,8-dione]
EC50 ([1]; H1N1): 14.9 nM
CC50 [2]: 104000 nM

O=C1c2c(O)c(=O)ccn2N([C@H]2c3ccccc3-c3ccsc3-c3ccccc32)[C@@H]2COCCN12 (racemic) [Example 2, (R)-12-((S)-8H-dibenzo [3,4:6,7]cycloheptyl [1,2-b]thiophen-8-yl)-7-hydroxy-3,4,12,12a-tetrahydro-1H-[1,4] oxazino[3,4-c] pyrido [2,1-f] [1,2,4] triazine-6,8-dione and (S)-12-((R)-8H-dibenzo [3,4:6,7]cycloheptyl [1,2-b]thiophen-8-yl)-7-hydroxy-3,4,12,12a-tetrahydro-1H-[1,4] oxazino[3,4-c] pyrido [2,1-f][1,2,4] triazine-6,8-dione]
EC50 ([1]; H1N1): 22.8 nM
CC50 [2]: > 100000 nM

O=C1c2c(O)c(=O)ccn2N([C@H]2c3ccccc3-c3ccsc3-c3ccccc32)[C@H]2COCCN12 (racemic) [Example 3, (S)-12-((S)-8H-dibenzo [3,4:6,7]cycloheptyl [1,2-b]thiophen-8-yl)-7-hydroxy-3,4,12,12a-tetrahydro-1H-[1,4] oxazino [3,4-c] pyrido [2,1-f] [1,2,4] triazine-6,8-dione and (R)-12-((R)-8H-dibenzo [3,4:6,7]cycloheptyl [1,2-b]thiophen-8-yl)-7-hydroxy-3,4,12,12a-tetrahydro-1H-[1,4] oxazino [3,4-c] pyrido [2,1-f][1,2,4] triazine-6,8-dione]
EC50 ([1]; H1N1): 23.5 nM
CC50 [2]: > 100000 nM

O=C1c2c(O)c(=O)ccn2N([C@H]2c3ccc(F)c(F)c3CSc3c2ccc2ccccc32)[C@@H]2COCCN12 (racemic) [Example 7, (R)-12-((S)-10,11-difluoro-7,12-dihydrobenzo [e]naphtho [1,2-b]thiepin-7-yl)-7-hydroxy-3,4,12,12a-tetrahydro-11H-[1,4] oxazino [3,4-c] pyrido [2,1-f] [1,2,4] triazine-6,8-dione and (S)-12-((R)-10,11-difluoro-7,12-dihydrobenzo[e]naphtho[1,2-b]thiepin-7-yl)-7-hydroxy-3,4,12,12a-tetrahydro-1H-[1,4]oxazino[3,4-c]pyrido[2,1-f][1,2,4]triazine-6,8-dione]
CC50 [2]: > 100000 nM

COc1cccc2c1-c1ccsc1-c1ccccc1C2N1[C@@H]2COCCN2C(=O)c2c(O)c(=O)ccn21 (stereo in doubt) [Example 19, (12aR)-7-hydroxy-12-((8R)-4-methoxy-8H-dibenzo [3,4:6,7]cyclohept[1,2-b]thiophen-8-yl)-3,4,12,12a-tetrahydro-1H-[1,4]oxazino[3,4-c]pyrido[2,1-f] [1,2,4]triazine-6,8-dione]
EC50 ([1]; H1N1): 34.1 nM
CC50 [2]: > 100000 nM

O=C1c2c(O)c(=O)ccn2N([C@H]2c3ccc(F)cc3-c3ccsc3-c3cc(F)ccc32)[C@@H]2COCCN12 [Compound (17-1), (R)-12-((S)-5,11-difluoro-8H-dibenzo[3,4:6,7]cyclohepta[1,2-b]thiophen-8-yl)-7-hydroxy-3,4,12,12a-tetrahydro-1H-[1,4]oxazino[3,4-c]pyrido[2,1-f][1,2,4]triazine-6,8-dione]
EC50 ([1]; H1N1): 18.8 nM
CC50 [2]: 77500 nM

O=C1c2c(O)c(=O)ccn2N([C@H]2c3ccc(F)cc3-c3ccsc3-c3ccccc32)[C@@H]2COCCN12 [Compound (20-1), (R)-12-((S)-5-fluoro-8H-dibenzo [3,4:6,7]cyclohept[1,2-b]thiophen-8-yl)-7-hydroxy-3,4,12,12a-tetrahydro-1H-[1,4]oxazino[3,4-c]pyrido[2,1-f][1,2,4]triazine-6,8-diketone]
EC50 [1]: 4.9 nM

O=C1c2c(O)c(=O)ccn2N([C@@H]2c3ccccc3-c3sccc3-c3c(F)cccc32)[C@@H]2COCCN12 [Compound (21-2), (12aR)-12-((8S)-4-fluoro-8H-dibenzo [3,4:6,7]cyclohept[1,2-b]thiophen-8-yl)-7-hydroxy-3,4,12,12a-tetrahydro-1H-[1,4]oxazino[3,4-c]pyrido[2,1-f] [1,2,4]triazine-6,8-dione]
EC50 ([1]; H1N1): 18.9 nM

O=C1c2c(O)c(=O)ccn2N(C2c3ccccc3SCc3c2ccc2ccccc32)C2COCCN12 (stereo not drawn) [Example 5, 12-(7,13-Dihydrobenzo [b]naphtho [2,1-e]thiepin-7-yl)-7-hydroxy-3,4,12,12a-tetrahydro-1H-[1,4] oxazino [3,4-c] pyrido [2,1-f] [1,2,4]triazine-6,8-dione]
CC50 [2]: > 100000 nM

O=C1c2c(O)c(=O)ccn2N(C2c3ccccc3-c3ccsc3-c3c2ccc(F)c3F)C2COCCN12 (stereo not drawn) [Example 11, 12-(11,12-Difluoro-8H-dibenzo [3,4:6,7]cycloheptyl [1,2-b]thiophen-8-yl)-7-Hydroxy-3,4,12, 12a-tetrahydro-1H-[1,4]oxazino[3,4-c]pyrido[2,1-f][1,2,4]triazine-6,8-dione]
EC50 ([1]; H1N1): 48.7 nM

O=C1c2c(O)c(=O)ccn2N(C2c3ccccc3-c3cc(Cl)sc3-c3ccccc32)[C@@H]2COCCN12 (stereo partly drawn) [Example 15, (12aR)-12-(2-chloro-8H-dibenzo [3,4:6,7]cyclohept[1,2-b]thiophen-8-yl)-7-hydroxy-3,4,12,12a-tetrahydro-1H-[1,4] oxazino [3,4-c] pyrido [2,1-f] [1,2,4]triazine-6,8-dione]
CC50 [2]: 39400 nM

COC(=O)OCOc1c2n(ccc1=O)N([C@H]1c3ccc(F)cc3-c3ccsc3-c3ccccc31)[C@@H]1COCCN1C2=O [Example 28, methyl (((R)-12-((S)-5-fluoro-8H-dibenzo [3,4:6,7]cyclohept[1,2-b]thiophen-8-yl)-6,8-dioxo 3,4,6,8,12,12a-hexahydro-1H-[1,4]oxazino [3,4-c]pyrido [2,1-f] [1,2, 4]triazin-7-yl)oxy)methyl carbonate]
Conversion in animals [3]: converted to the compound of Example 21 (21-1) in animals
AUCINF ([3]; iv, 0.2 mg/kg): 1030 ng·h/mL
AUClast ([3]; iv, 0.2 mg/kg): 996 ng·h/mL
Cmax ([3]; iv, 0.2 mg/kg): 144 ng/mL
clearance ([3]; iv, 0.2 mg/kg): 3.22 mL/min/kg
t1/2 ([3]; iv, 0.2 mg/kg): 4.91 h
AUCINF ([3]; po, 1 mg/kg): 2580 ng·h/mL
AUClast ([3]; po, 1 mg/kg): 2430 ng·h/mL
Cmax ([3]; po, 1 mg/kg): 311 ng/mL
F ([3]; po, 1 mg/kg): 57.6%
t1/2 ([3]; po, 1 mg/kg): 5.72 h

O=C1c2c(O)c(=O)ccn2N([C@H]2c3ccccc3-c3cnoc3-c3ccccc32)[C@@H]2COCCN12 [Example 38, 12-(8H-Dibenzo [3,4:6,7]cyclohepta[1,2-d]isoxazol-8-yl)-7-hydroxy-3,4,12,12a-tetrahydro-1H-[1,4]oxazino[3,4-c]pyrido[2,1-f] [1,2,4]triazin-6,8-dione]
EC50 ([1]; H1N1): 38 nM
CC50 [2]: > 100000 nM

(12aR)-12-((8R)-4,5-difluoro-2-phenyl-8H-dibenzo[3,4:6,7]cyclohept[1,2-b]thiophen-8-yl)-7-hydroxy-3,4,12,12a-tetrahydro-1H-[1,4]oxazino[3,4-c]pyrido[2,1-f] [1,2,4] triazine-6,8-dione and (12aS)-12-((8S)-4,5-difluoro-2-phenyl-8H-dibenzo[3,4:6,7]cyclohept[1,2-b]thiophen-8-yl)-7-hydroxy-3,4,12,12a-tetrahydro-1H-[1,4] oxazino [3,4-c] pyrido [2,1-f][1,2,4] triazine-6,8-dione [Example 12]
EC50 [1]: 49.3 nM
CC50 (MDCK cells): 112000 nM

The mixture of (12aR)-12-((8R)-4-fluoro-8H-dibenzo [3,4:6,7]cyclohepta[1,2-b]thiophen-8-yl)-7-hydroxy-3,4,12,12a-tetrahydro-1H-[1,4]oxazino [3,4-c] pyrido [2,1-f] [1,2,4]triazine-6,8-dione and (12aR)-12-((8S)-4-fluoro-8H-dibenzo [3,4:6,7] cyclohept[1,2-b]thiophen-8-yl)-7-hydroxy-3,4,12,12a-tetrahydro-1H-[1,4]oxazino [3,4-c] pyrido [2,1-f] [1,2,4]triazine-6,8-dione [Example 36]
EC50 [1]: 9.87 nM
CC50 (MDCK cells): 36000 nM
